Patent US12109204B2, “Methods for treating muscular dystrophies” (The Regents of the University of California, priority 2018, dated 2024)
Entries after “also recorded” stand apart in the source; their conditions may differ.

How the values were obtained:
Type in all cases: cell-based, murine
[1] = tested on: hSSPN-EGFP myotubes (human sarcospan promoter reporter in C2C12); experiment: hSSPN-EGFP reporter myotube assay (high-content imaging); settings: for hit call in an earlier assay: no details given; for hSSPN-EGFP reporter activity, counterscreen: doses between 3.9 nm to 1 μM, 48 hours (FIG. 10a)
[2] = tested on: hSSPN-EGFP myotubes (human sarcospan promoter reporter in C2C12); experiment: as above; settings: for hSSPN-EGFP RFU, Plate 1 / hSSPN-EGFP RFU, Plate 2: retest of screen hits at 5.5 μM; for hSSPN-EGFP RFU, Plate 1: Plate 1, n=24 per plate; for hSSPN-EGFP RFU, Plate 2: Plate 2, n=24 per plate; for fluorescence intensity over vehicle, primary screen hit call: primary screen of 3,200 molecules, 5.5 μM, 48 hours, n=1, hit cutoff 1.4-fold
Procedure: (§1) C2C12 immortalized murine myoblasts cultured in growth media consisting of DMEM (Gibco) with 20% Fetal Bovine Serum (Sigma-Aldrich) at 37° C. with 5% CO2 were transfected with the hSSPN-EGFP or hSSPN-Luciferase linearized plasmids using Lipofectamine 3000 Transfection Reagent (Thermo Fisher Scientific). Transfected cells were selected using 800 μg/ml of G418 (Sigma-Aldrich) for 4 weeks to generate stable cell lines expressing reporter protein under control of the human SSPN promoter.
hSSPN-EGFP myoblasts were seeded at 500 cells per well in 50 μl of growth media in 384-well black, clear bottom microplates (Greiner) using a Multidrop 384 (Thermo Fisher Scientific) and incubated for 3 days. Upon reaching confluency, the growth media was replaced with 50 μl of differentiation media consisting of DMEM with 2% horse serum (Sigma-Aldrich) using an EL406 combination washer dispenser (Biotek). At day 2 of differentiation, the media on the cells was aspirated, left with a residual volume of 10 μl, and replaced with 30 μl of fresh differentiation media. 0.5 μl of small molecule in DMSO or DMSO alone (for vehicle and positive control wells) was added to each well using a Biomek Fx (Beckman). To ensure proper mixing of the DMSO, 50 μl of additional differentiation media was added to all wells except the positive control treated wells, which instead received 50 μl of media containing insulin transferrin selenium (ITS, Gibco) to reach a final concentration of 1% ITS. The final concentration of drug in each treated well was 5.5 μM in 0.55% DMSO and 0.55% DMSO for vehicle and positive control treated wells. After 48 hours of incubation, the media was replaced with Fluorobrite DMEM (Gibco) and each plate was imaged using ImageXpress Micro Confocal High Content Imaging System (Molecular Devices). The fluorescent intensity of imaged cells was determined using MetaXpress Analysis software (Molecular Devices). Analysis setting were as follows: top hat (size: 12, filter shape: circle), adaptive threshold (source: top hat, minimum width: 10, maximum width: 800, intensity above local background: 500), filter mask (filter type: minimum area filter, minimum value: 500). […]

[3] = tested on: hSSPN-Luciferase reporter cells (human sarcospan promoter reporter in C2C12); experiment: hSSPN-Luciferase reporter assay (Bright-Glo); settings: doses between 3.9 nm to 1 μM, 48 hours (FIG. 10b)
Procedure: as §1
hSSPN-Luciferase myoblasts were cultured as described above. After 48 hours of treatment, plates were allowed to equilibrate to room temperature before the media was aspirated using an EL406 combination washer dispenser at room temperature. Bright-Glo luciferase assay system reagent (Promega) and differentiation media were added to cells at a 1:2 dilution using a Multidrop 384. After a 3-minute incubation at room temperature, luminescence signal was quantified using an Envision plate reader (PerkinElmer). The relative luminescence units were analyzed to determine fold change of treated over vehicle treated cells.
Cells were treated for 48 hours beginning at day 2 of differentiation with DMSO (vehicle control, ATCC), felodipine (Sigma), nilvadipine (Sigma), alloxazine (Sigma), GW5074 (Sigma), methylthioadenosine (Santa Cruz Biotechnology), or ezutromid (Cayman Chemicals) diluted in cell type specific differentiation media at doses listed in the figures. For gene expression studies, each treatment was performed in duplicate. For protein studies, each treatment was performed with single or double replicates.

[4] = tested on: SSPN, sarcospan; experiment: SSPN gene expression by qPCR in C2C12 wild-type myotubes; settings: 48h, normalized to GAPDH, n=2 (FIG. 11b), felodipine 10 μM
Procedure: (§2) RNA from myotubes treated for 48 hours was extracted from cells using Trizol-based (Thermo Fisher Scientific) phase separation. RNA concentrations were determined using a NanoDrop 1000 (Thermo Fisher Scientific) and 750 ng of RNA in a 20 μl reaction was reverse transcribed using iScript cDNA synthesis (Bio-Rad) with the following cycling conditions: 25° C. for 5 minutes, 42° C. for 30 minutes, 85° C. for 5 minutes. For quantitative PCR, SsoFast EvaGreen Supermix (Bio-Rad), 400 nM of each optimized forward and reverse primer (for primer descriptions see Table 1), and cDNA corresponding to 37.5 ng RNA were used to amplify cDNA measured by Applied Biosystems 7300 (Thermo Fisher Scientific) with the following reaction conditions: 55° C. for 2 minutes, 95° C. for 2 minutes, 40 cycles of 95° C. for 10 seconds and 62° C. for 30 seconds, and dissociation stage. Each sample was run in triplicate. Data was analyzed using the ddCT method and normalized to reference gene, GAPDH or β-actin, with vehicle-treated samples serving as the calibrator (relative expression of vehicle control=1). C2C12 cells (American Type Culture Collection) were grown at 37° C. with 5% CO2 in growth media containing DMEM (Gibco) with 20% FBS (Sigma-Aldrich). Upon reaching confluency, the media was replaced with differentiation media containing DMEM with 2% horse serum (Sigma-Aldrich). Conditionally immortalized H2K mdx myoblast cells with a nonsense mutation in exon 23 of dystrophin were a gift from Terrance Partridge, Ph.D. (Children's National Medical Center, Washington, D.C.). Cells were allowed to proliferate on 0.01% gelatin (Sigma-Aldrich) coated plates at 33° C. with 5% CO2 with growth media containing DMEM, 20% HI-FBS (Invitrogen), 2% L-glutamine (Sigma-Aldrich), 2% chicken embryo extract (Accurate Chemical), 1% penicillin-streptomycin (Sigma-Aldrich), and 20U/ml of fresh interferon gamma (Gibco). For differentiation, H2K mdx myoblasts were seeded on plates coated with 0.1 mg/ml matrigel (Corning) diluted in DMEM and grown in proliferation conditions. […]

[5] = tested on: UTRN, utrophin; experiment: UTRN gene expression by qPCR in C2C12 wild-type myotubes; settings: C2C12 myotubes, 48h, normalized to GAPDH, n=2 (FIG. 11a); felodipine 10 μM
Procedure: as §2, with “(Sigma-Aldrich).” for “(Sigma-Aldrich). Conditionally immortalized H2K mdx myoblast cells with a nonsense mutation in exon 23 of dystrophin were a gift from Terrance Partridge, Ph.D. (Children's National Medical Center, Washington, D.C.). Cells were allowed to proliferate on 0.01% gelatin (Sigma-Aldrich) coated plates at 33° C. with 5% CO2 with growth media containing DMEM, 20% HI-FBS (Invitrogen), 2% L-glutamine (Sigma-Aldrich), 2% chicken embryo extract (Accurate Chemical), 1% penicillin-streptomycin (Sigma-Aldrich), and 20U/ml of fresh interferon gamma (Gibco). For differentiation, H2K mdx myoblasts were seeded on plates coated with 0.1 mg/ml matrigel (Corning) diluted in DMEM and grown in proliferation conditions.”

`CC[n+]1c(C=CC=C2N(C)c3ccccc3C2(C)C)sc2ccccc21.[I-]` [AC-93253, 2-[3-(1,3-Dihydro-1,3,3-trimethyl-2H-indol-2-ylidene)-1-propenyl]-3-ethyl-benzothiazolium iodide] was tested, and the “hit call in an earlier assay” value [1] was “among the hits”.

In the case of `CC(=O)OC1CN2CCC1CC2` (centres unmarked) [Aceclidine, 1-Azabicyclo[2.2.2]oct-3-yl acetate], the “hSSPN-EGFP RFU, Plate 1” value [2] is reported as 1.1 RFU and the “hSSPN-EGFP RFU, Plate 2” value [2] is reported as 1.1 RFU.

`Nc1nc(=O)c2ncn(COCCO)c2[nH]1` [Acyclovir, 2-amino-9-(2-hydroxyethoxymethyl)-3H-purin-6-one] was tested, and the “hSSPN-EGFP RFU, Plate 1” value [2] was 0.9 RFU and the “hSSPN-EGFP RFU, Plate 2” value [2] was 1.0 RFU.

With `O=c1[nH]c(=O)c2nc3ccccc3nc2[nH]1` [Alloxazine, 1H-benzo[g]pteridine-2,4-dione] the “hSSPN-Luciferase reporter activity, counterscreen” value (shortened to “hSSPN-Luciferase reporter activity”) [3] was “increased activity”, the “hSSPN-EGFP reporter activity, counterscreen” value (from here on “hSSPN-EGFP reporter activity”) [1] was “increased activity” and the “fluorescence intensity over vehicle, primary screen hit call” value (shortened to “fluorescence intensity over vehicle”) [2] was “hits”. The “hSSPN-EGFP RFU, Plate 1” value [2] was 1.0 RFU and the “hSSPN-EGFP RFU, Plate 2” value [2] was 1.1 RFU.

For `COC(=O)N=N/C=C1\C=[N+]([O-])c2ccccc2N1O` [Carbodox, methyl N-[(E)-(1-hydroxy-4-oxidoquinoxalin-4-ium-2-ylidene)methyl]iminocarbamate], the “hSSPN-EGFP RFU, Plate 1” value [2] was 1.1 RFU and the “hSSPN-EGFP RFU, Plate 2” value [2] was 1.1 RFU.

In the case of `O=C1Nc2ccc(I)cc2/C1=C/c1cc(Br)c(O)c(Br)c1` [GW5074, (3Z)-3-[(3,5-dibromo-4-hydroxyphenyl)methylidene]-5-iodo-1H-indol-2-one], the “hSSPN-Luciferase reporter activity” value [3] is reported as “increased activity”, the “hSSPN-EGFP reporter activity” value [1] is reported as “increased activity” and the “fluorescence intensity over vehicle” value [2] is reported as “hits”. For the same compound, the “hSSPN-EGFP RFU, Plate 1” value [2] was 1.2 RFU and the “hSSPN-EGFP RFU, Plate 2” value [2] was 1.2 RFU.

In the case of `CC(C)NCC(O)c1ccc(O)c(O)c1` (centres unmarked) [Isoproterenol, 4-[1-hydroxy-2-(propan-2-ylamino)ethyl]benzene-1,2-diol], the “fluorescence intensity over vehicle” value [2] is reported as “hits”, the “hSSPN-EGFP RFU, Plate 1” value [2] is reported as 1.1 RFU and the “hSSPN-EGFP RFU, Plate 2” value [2] is reported as 1.1 RFU.

With `COC(=O)C1=C(C)NC(C)=C(C(=O)OC(C)C)C1c1cccc2nonc12` (centres unmarked) [Isradipine, 3-O-methyl 5-O-propan-2-yl 4-(2,1,3-benzoxadiazol-4-yl)-2,6-dimethyl-1,4-dihydropyridine-3,5-dicarboxylate] the “fluorescence intensity over vehicle” value [2] was “hits”, the “hSSPN-EGFP RFU, Plate 1” value [2] was 1.5 RFU and the “hSSPN-EGFP RFU, Plate 2” value [2] was 1.4 RFU.

For `CCOC(=O)C1=C(C)NC(C)=C(C(=O)OCC)C1c1ccccc1/C=C/C(=O)OC(C)(C)C` [Lacidipine, diethyl 2,6-dimethyl-4-[2-[(E)-3-[(2-methylpropan-2-yl)oxy]-3-oxoprop-1-enyl]phenyl]-1,4-dihydropyridine-3,5-dicarboxylate], the “fluorescence intensity over vehicle” value [2] was “hits”, the “hSSPN-EGFP RFU, Plate 1” value [2] was 1.3 RFU and the “hSSPN-EGFP RFU, Plate 2” value [2] was 1.2 RFU.

For `CCCCN1CCCC1CNC(=O)c1cc(C#N)c2ccccc2c1OC` (centres unmarked) [Nafadotride, N-[(1-butylpyrrolidin-2-yl)methyl]-4-cyano-1-methoxynaphthalene-2-carboxamide], the “hSSPN-EGFP RFU, Plate 1” value [2] was 1.1 RFU and the “hSSPN-EGFP RFU, Plate 2” value [2] was 1.0 RFU.

`C[C@]12CC[C@H]3[C@@H](CCC4=CC(=O)CC[C@@H]43)[C@@H]1CC[C@@H]2O` [Nandrolone, (8R,9S,10R,13 S,14S,17S)-17-hydroxy-13-methyl-2,6,7,8,9,10,11,12,14,15,16,17-dodecahydro-1H-cyclopenta[a]phenanthren-3-one] was tested, and the “fluorescence intensity over vehicle” value [2] was “hits”, the “hSSPN-EGFP RFU, Plate 1” value [2] was 1.2 RFU and the “hSSPN-EGFP RFU, Plate 2” value [2] was 1.1 RFU.

For `COC(=O)C1=C(C)NC(C)=C(C(=O)OC)C1c1ccccc1[N+](=O)[O-]` [Nifedipine, dimethyl 2,6-dimethyl-4-(2-nitrophenyl)-1,4-dihydropyridine-3,5-dicarboxylate], the “fluorescence intensity over vehicle” value [2] was “hits”, the “hSSPN-EGFP RFU, Plate 1” value [2] was 1.3 RFU and the “hSSPN-EGFP RFU, Plate 2” value [2] was 1.0 RFU.

With `COC(=O)C1=C(C#N)NC(C)=C(C(=O)OC(C)C)C1c1cccc([N+](=O)[O-])c1` (centres unmarked) [Nilvadipine, 3-O-methyl 5-O-propan-2-yl 2-cyano-6-methyl-4-(3-nitrophenyl)-1,4-dihydropyridine-3,5-dicarboxylate] the “hSSPN-Luciferase reporter activity” value [3] was “increased activity”, the “hSSPN-EGFP reporter activity” value [1] was “increased activity” and the “fluorescence intensity over vehicle” value [2] was “hits”. The “hSSPN-EGFP RFU, Plate 1” value [2] was 1.6 RFU and the “hSSPN-EGFP RFU, Plate 2” value [2] was 1.5 RFU.

`CCS(=O)(=O)c1ccc2oc(-c3ccc4ccccc4c3)nc2c1` [ezutromid] was tested, and the “SSPN gene expression relative to vehicle” value [4] was “did not significantly increase SSPN gene expression; also recorded: did not significantly increase sarcospan levels” and the “UTRN gene expression relative to vehicle” value [5] was “did not significantly increase UTRN levels; also recorded: did not increase utrophin gene expression”.

With `CSC[C@H]1O[C@@H](n2cnc3c(N)ncnc32)[C@H](O)[C@@H]1O` [methylthioadenosine, (2R,3R,4S,5S)-2-(6-aminopurin-9-yl)-5-(methylsulfanylmethyl)oxolane-3,4-diol] the “hSSPN-Luciferase reporter activity” value [3] was “increased activity”, the “hSSPN-EGFP reporter activity” value [1] was “increased activity” and the “hit call in an earlier assay” value [1] was “among the hits”.
